Source: patent publication US20250316716A1, “ELECTROCHEMICAL OXYGEN REDUCTION CATALYST” (TOYOTA JIDOSHA KABUSHIKI KAISHA, priority 2024, published 2025)

Legend:
[1] = Water solubility of the modifier; format: physicochemical
[2] = Alcohol solubility of the modifier; format: physicochemical; conditions: organic solvent or mixture, alcohol (diacetone alcohol or ethanol)

Row | SMILES | solubility [1] [µg/mL] | solubility [2] [µg/mL]
1 | Nc1nc(N)nc(N)n1 [Melamine, melamine] | ≥ 3000 | ≥ 3000
2 | NC1=NC2=NC(N)=NC3=NC(N)=NC(=N1)N23 [Melem, melem] | < 3000 | < 3000
